From patent publication US8940894B2, “Aminothiazole compounds as kinase inhibitors and methods of using the same” (AB Science, priority 2007, dated 2015)

Assays:
[1] = behaviour of the polymorph form at relative humidity (storage); assay type: physicochemical; settings: at 80% relative humidity
[2] = thermodynamic stability of the polymorph form versus temperature; assay type: physicochemical; settings: at temperatures below 200° C.

state of the polymorph form under humidity [1]: remains, dry
thermodynamic stability of the polymorph form [2]: thermodynamically stable
Structure (SMILES): CS(=O)(=O)O.Cc1ccc(NC(=O)c2ccc(CN3CCN(C)CC3)cc2)cc1Nc1nc(-c2cccnc2)cs1 [(VI), 4-(4-Methyl-piperazin-1-ylmethyl)-N-[4-methyl-3-(4-pyridin-3-yl-thiazol-2-ylamino)-phenyl]-benzamide methanesulfonate]
